Patent US20260262643A1, “HERBICIDAL BENZOXAZINES” (FMC CORPORATION, priority 2022, published 2026)

How the values were obtained:
ragweed [1] = experiment: Test C postemergence; type: in vivo, Ambrosia artemisiifolia; conditions: 10 days, 0 to 100 scale (0 no effect, 100 complete control)
Procedure, shortened: (§1)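 Seeds in loam–sand blend received preemergence directed soil spray of test chemicals in non-phytotoxic solvent with surfactant; postemergence treatment was applied at one- to two-leaf stage (2–10 cm). After 10 days in greenhouse, injury rated visually versus untreated controls, 0 (no effect) to 100 (complete control).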

ragweed [2] = experiment: Test C preemergence; type: in vivo, Ambrosia artemisiifolia
Procedure, shortened: as §1

oat, wild [3] = experiment: Test C postemergence; type: in vivo, Avena fatua; conditions: 10 days, 0 to 100 scale (0 no effect, 100 complete control)
Procedure, shortened: as §1

sedge, umbrella = experiment: Test D flooded paddy test; type: in vivo, Cyperus difformis; conditions: 250 g ai/ha, applied to paddy water, visual rating after 13 to 14 days, scale 0 to 100 (0 no effect, 100 complete control)
Procedure, shortened: (§2)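 Plants grown to the 2-leaf stage; pots flooded to 3 cm above soil at treatment and held at that depth throughout. Test compounds applied directly to the paddy water. After 13 to 14 days in a greenhouse, response was rated visually versus controls on a 0 (no effect) to 100 (complete control) scale.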

barnyardgrass [4] = experiment: Test D flooded paddy test; type: in vivo, Echinochloa crus-galli; conditions: 250 g ai/ha, applied to paddy water, visual rating after 13 to 14 days, scale 0 to 100 (0 no effect, 100 complete control)
Procedure, shortened: as §2

foxtail, giant [5] = experiment: Test C preemergence; type: in vivo, Setaria faberi
From the text: (§3) Seeds of plant species selected from barnyardgrass (Echinochloa crusgalli), blackgrass (Alopecurus myosuroides), corn (Zea mays), foxtail, giant (giant foxtail, Setaria faberi), green foxtail (Setaria viridis), goosegrass (Eleusine indica), kochia (Bassia scoparia), oat, wild (wild oat, Avena fatua), pigweed, palmer (palmer amaranth, palmer pigweed, Amaranthus palmeri), Pigweed, Redroot (redroot pigweed, Amaranthus retroflexus), ragweed (common ragweed, Ambrosia artemisiifolia), ryegrass, Italian ([…] ryegrass, Lolium multiflorum), soybean (Glycine max), and wheat (Triticum aestivum) were planted into a blend of loam soil and sand and treated preemergence with a directed soil spray using test chemicals formulated in a non-phytotoxic solvent mixture which included a surfactant. At the same time, plants selected from these crops and weed species and also galium (catchweed bedstraw, Galium aparine) and horseweed (Erigeron canadensis) were planted in pots containing the same blend of loam soil and sand and treated with postemergence applications of test chemicals formulated in the same manner. Plants ranged in height from 2 to 10 cm and were in the one- to two-leaf stage for the postemergence treatment. Treated plants and untreated controls were maintained in a greenhouse for 10 days, after which time all treated plants were compared to untreated controls and visually evaluated for injury. Plant response ratings, summarized in Table C, are based on a 0 to 100 scale where 0 is no effect and 100 is complete control. A dash (-) response means no test result.

wheat [6] = experiment: Test C postemergence; type: in vivo, Triticum aestivum; conditions: 10 days, 0 to 100 scale (0 no effect, 100 complete control)
Procedure, shortened: as §1

soybean [7] = experiment: Test C preemergence; type: in vivo, Glycine max
Procedure, shortened: as §1

oat, wild [8] = experiment: Test C preemergence; type: in vivo, Avena fatua
Procedure, shortened: as §1

barnyardgrass [9] = experiment: Test C preemergence; type: in vivo, Echinochloa crusgalli
Procedure, shortened: as §1

horseweed = experiment: Test C postemergence; type: in vivo, Erigeron canadensis; conditions: 10 days, 0 to 100 scale (0 no effect, 100 complete control)
Procedure, shortened: as §1

ryegrass, Italian [10] = experiment: Test C preemergence; type: in vivo, Lolium multiflorum
Procedure, shortened: as §1

kochia [11] = experiment: Test C preemergence; type: in vivo, Bassia scoparia
Procedure, shortened: as §1

ducksalad = experiment: Test D flooded paddy test; type: in vivo, Heteranthera limosa; conditions: 250 g ai/ha, applied to paddy water, visual rating after 13 to 14 days, scale 0 to 100 (0 no effect, 100 complete control)
Procedure, shortened: as §2

pigweed, palmer [12] = experiment: Test C postemergence; type: in vivo, Amaranthus palmeri; conditions: 10 days, 0 to 100 scale (0 no effect, 100 complete control)
Procedure, shortened: as §1

foxtail, giant [13] = experiment: Test C postemergence; type: in vivo, Setaria faberi; conditions: 10 days, 0 to 100 scale (0 no effect, 100 complete control)
From the text: as §3

soybean [14] = experiment: Test C postemergence; type: in vivo, Glycine max; conditions: 10 days, 0 to 100 scale (0 no effect, 100 complete control)
Procedure, shortened: as §1

barnyardgrass [15] = experiment: Test C postemergence; type: in vivo, Echinochloa crusgalli; conditions: 10 days, 0 to 100 scale (0 no effect, 100 complete control)
Procedure, shortened: as §1

wheat [16] = experiment: Test C preemergence; type: in vivo, Triticum aestivum
Procedure, shortened: as §1

blackgrass [17] = experiment: Test C preemergence; type: in vivo, Alopecurus myosuroides
Procedure, shortened: as §1

ryegrass, Italian [18] = experiment: Test C postemergence; type: in vivo, Lolium multiflorum; conditions: 10 days, 0 to 100 scale (0 no effect, 100 complete control)
Procedure, shortened: as §1

kochia [19] = experiment: Test C postemergence; type: in vivo, Bassia scoparia; conditions: 10 days, 0 to 100 scale (0 no effect, 100 complete control)
Procedure, shortened: as §1

blackgrass [20] = experiment: Test C postemergence; type: in vivo, Alopecurus myosuroides; conditions: 10 days, 0 to 100 scale (0 no effect, 100 complete control)
Procedure, shortened: as §1

galium = experiment: Test C postemergence; type: in vivo, Galium aparine; conditions: 10 days, 0 to 100 scale (0 no effect, 100 complete control)
Procedure, shortened: as §1

corn [21] = experiment: Test C preemergence; type: in vivo, Zea mays; conditions: 500 g ai/ha, preemergence; 0 to 100 scale (0 no effect, 100 complete control)
Procedure, shortened: as §1

corn [22] = experiment: Test C postemergence; type: in vivo, Zea mays; conditions: 10 days, 0 to 100 scale (0 no effect, 100 complete control)
Procedure, shortened: as §1

pigweed, palmer [23] = experiment: Test C preemergence; type: in vivo, Amaranthus palmeri
Procedure, shortened: as §1

rice = experiment: Test D flooded paddy test; type: in vivo, Oryza sativa; conditions: 250 g ai/ha, applied to paddy water, visual rating after 13 to 14 days, scale 0 to 100 (0 no effect, 100 complete control)
Procedure, shortened: as §2

[24] = 500 g ai/ha, preemergence, 0 to 100 scale (0 no effect, 100 complete control)
[25] = Preemergence, 125 g ai/ha, 0 to 100 scale, 0 no effect, 100 complete control

Cc1ncn(-c2cccc(C(=O)N3C[C@H](C)Oc4c(Cl)cccc43)c2)n1 [Compound 326]
Plant response rating, Ragweed (ragweed [1]; 500 g ai/ha, postemergence): 60
Plant response rating, Ragweed (ragweed [1]; Postemergence, 125 g ai/ha): 10
Ragweed plant response rating (ragweed [2]; [24]): 0
Plant response rating, Ragweed (ragweed [2]; [25]): 0
Plant response rating, Oat, Wild (oat, wild [3]; 500 g ai/ha, postemergence): 50
Plant response rating, Oat, Wild (oat, wild [3]; Postemergence, 125 g ai/ha): 20
Plant response rating, Sedge, Umbrella (Flood) (sedge, umbrella): 95
Plant response rating, Barnyardgrass (Flood) (barnyardgrass [4]): 15
Foxtail, Giant plant response rating (foxtail, giant [5]; [24]): 100
Plant response rating, Foxtail, Giant (foxtail, giant [5]; [25]): 100
Plant response rating, Wheat (wheat [6]; 500 g ai/ha, postemergence): 40
Plant response rating, Wheat (wheat [6]; Postemergence, 125 g ai/ha): 20
Soybean plant response rating (soybean [7]; [24]): 80
Plant response rating, Soybean (soybean [7]; [25]): 70
Oat, Wild plant response rating (oat, wild [8]; [24]): 80
Plant response rating, Oat, Wild (oat, wild [8]; [25]): 30
Barnyardgrass plant response rating (barnyardgrass [9]; [24]): 90
Plant response rating, Barnyardgrass (barnyardgrass [9]; [25]): 60
Plant response rating, Horseweed (horseweed; 500 g ai/ha, postemergence): 50
Plant response rating, Horseweed (horseweed; Postemergence, 125 g ai/ha): 0
Ryegrass, Italian plant response rating (ryegrass, Italian [10]; [24]): 100
Plant response rating, Ryegrass, Italian (ryegrass, Italian [10]; [25]): 90
Kochia plant response rating (kochia [11]; [24]): 90
Plant response rating, Kochia (kochia [11]; [25]): 80
Plant response rating, Ducksalad (Flood) (ducksalad): 80
Plant response rating, Pigweed, Palmer (pigweed, palmer [12]; 500 g ai/ha, postemergence): 60
Plant response rating, Pigweed, Palmer (pigweed, palmer [12]; Postemergence, 125 g ai/ha): 20
Plant response rating, Foxtail, Giant (foxtail, giant [13]; 500 g ai/ha, postemergence): 90
Plant response rating, Foxtail, Giant (foxtail, giant [13]; Postemergence, 125 g ai/ha): 70
Plant response rating, Soybean (soybean [14]; 500 g ai/ha, postemergence): 100
Plant response rating, Soybean (soybean [14]; Postemergence, 125 g ai/ha): 100
Plant response rating, Barnyardgrass (barnyardgrass [15]; 500 g ai/ha, postemergence): 80
Plant response rating, Barnyardgrass (barnyardgrass [15]; Postemergence, 125 g ai/ha): 30
Wheat plant response rating (wheat [16]; [24]): 80
Plant response rating, Wheat (wheat [16]; [25]): 20
Blackgrass plant response rating (blackgrass [17]; [24]): 90
Plant response rating, Blackgrass (blackgrass [17]; [25]): 80
Plant response rating, Ryegrass, Italian (ryegrass, Italian [18]; 500 g ai/ha, postemergence): 80
Plant response rating, Ryegrass, Italian (ryegrass, Italian [18]; Postemergence, 125 g ai/ha): 40
Plant response rating, Kochia (kochia [19]; 500 g ai/ha, postemergence): 80
Plant response rating, Kochia (kochia [19]; Postemergence, 125 g ai/ha): 80
Plant response rating, Blackgrass (blackgrass [20]; 500 g ai/ha, postemergence): 80
Plant response rating, Blackgrass (blackgrass [20]; Postemergence, 125 g ai/ha): 80
Plant response rating, Galium (galium; 500 g ai/ha, postemergence): 100
Plant response rating, Galium (galium; Postemergence, 125 g ai/ha): 100
Corn plant response rating (corn [21]): 40
Plant response rating, Corn (corn [22]; 500 g ai/ha, postemergence): 80
Plant response rating, Corn (corn [22]; Postemergence, 125 g ai/ha): 10
Pigweed, Palmer plant response rating (pigweed, palmer [23]; [24]): 100
Plant response rating, Pigweed, Palmer (pigweed, palmer [23]; [25]): 60
Plant response rating, Rice (Flood) (rice): 0
